{
  "source": "ChEMBL document CHEMBL4330144",
  "about": "“A mitochondria-targeted organic arsenical accelerates mitochondrial metabolic disorder and function injury” (Bioorg Med Chem, 2019)",
  "key": {"[1]": {"system": "NB-4", "assay": "Induction of ROS generation in human NB4 cells up to 1.2 uM up to 24 hrs by DCFH-DA staining based flow cytometry", "assay_type": "functional, cell-based"}, "[2]": {"species": "Rattus norvegicus", "assay": "Induction of mitochondrial membrane potential loss in isolated Wistar rat mitochondria assessed as stationary increase phase rate constant at 25 uM using pyruvate as substrate up to 3 hrs by microcalorimetry (reference value: 1 to 1.18 10^-3/min)", "assay_type": "functional"}, "[3]": {"system": "NB-4", "assay": "Induction of mitochondrial membrane potential loss in human NB4 cells at 0.6 uM after 3 hrs by JC1 staining based flow cytometry (reference value: 27.7%)", "assay_type": "functional"}, "[4]": {"species": "Rattus norvegicus", "assay": "Induction of mitochondrial swelling in isolated Wistar rat mitochondria at 30 uM in presence of cyclosporin-A", "assay_type": "functional"}, "[5]": {"system": "NB-4", "assay": "Induction of ROS generation in human NB4 cells at 0.6 uM after 1 to 6 hrs by DCFH-DA staining based flow cytometry", "assay_type": "functional, cell-based"}, "[6]": {"system": "NB-4", "assay": "Induction of apoptosis in human NB4 cells assessed as late apoptotic cells after 24 hrs in presence of Z-VAD-fmk by Annexin V-FITC/propidium iodide staining based flow cytometry (reference value: 2.9%)", "assay_type": "functional"}, "[7]": {"species": "Rattus norvegicus", "assay": "Inhibition of ETC2 in isolated Wistar rat mitochondria assessed as decrease in DCPIP/DB reagent reduction at 5 to 50 uM incubated for 3 to 5 mins and measured for up to 3 mins"}, "[8]": {"species": "Rattus norvegicus", "assay": "Induction of mitochondrial membrane potential loss in isolated Wistar rat mitochondria assessed as maximum power output at 50 uM using pyruvate as substrate up to 3 hrs by microcalorimetry", "assay_type": "functional"}, "[9]": {"species": "Rattus norvegicus", "assay": "Inhibition of mitochondrial respiration in isolated Wistar rat mitochondria assessed as decrease in succinate/ADP-stimulated respiratory control ratio up to 16 uM by Clark oxygen electrode method", "assay_type": "functional"}, "[10]": {"system": "NB-4", "assay": "Cytotoxicity against human NB4 cells assessed as reduction in cell viability at 1 to 1.2 uM after 24 hrs in presence of DTT by trypan blue assay", "assay_type": "functional, cell-based"}, "[11]": {"species": "Rattus norvegicus", "assay": "Induction of mitochondrial membrane potential loss in isolated Wistar rat mitochondria assessed as stationary increase phase rate constant at 100 uM using pyruvate as substrate up to 3 hrs by microcalorimetry", "assay_type": "functional"}, "[12]": {"species": "Rattus norvegicus", "assay": "Inhibition of ETC1 in isolated Wistar rat mitochondria assessed as reduction in NADH oxidation at 6 to 24 uM preincubated for 3 mins and measured after 5 mins by DB reagent based assay"}, "[13]": {"system": "NB-4", "assay": "Induction of apoptosis in human NB4 cells assessed as live cells after 24 hrs in presence of Nec-1 by Annexin V-FITC/propidium iodide staining based flow cytometry (reference value: 92%)", "assay_type": "functional"}, "[14]": {"species": "Rattus norvegicus", "assay": "Induction of mitochondrial membrane potential loss in isolated Wistar rat mitochondria assessed as maximum power output at 25 uM using pyruvate as substrate up to 3 hrs by microcalorimetry (reference value: 141.64 to 153.92 W)", "assay_type": "functional"}, "[15]": {"species": "Rattus norvegicus", "assay": "Induction of mitochondrial membrane potential loss in isolated Wistar rat mitochondria assessed as maximum power output at 100 uM using pyruvate as substrate up to 3 hrs by microcalorimetry", "assay_type": "functional"}, "[16]": {"system": "NB-4", "assay": "Reduction in cell viability in human NB4 cells up to 1.6 uM up to 24 hrs by MTT assay", "assay_type": "functional, cell-based"}, "[17]": {"system": "NB-4", "assay": "Induction of apoptosis in human NB4 cells assessed as early apoptotic cells after 24 hrs in presence of Nec-1 by Annexin V-FITC/propidium iodide staining based flow cytometry (reference value: 5%)", "assay_type": "functional"}, "[18]": {"system": "NB-4", "assay": "Induction of cytochrome-c release in human NB4 cells after 24 hrs by ELISA", "assay_type": "functional, cell-based"}, "[19]": {"species": "Rattus norvegicus", "assay": "Induction of mitochondrial membrane permeability in isolated Wistar rat mitochondria at 50 uM for 30 mins by TEM analysis", "assay_type": "functional"}, "[20]": {"species": "Rattus norvegicus", "assay": "Induction of mitochondrial membrane potential loss in isolated Wistar rat mitochondria assessed as total heat output at 25 uM using pyruvate as substrate up to 3 hrs by microcalorimetry (reference value: 10.32 to 10.36 J)", "assay_type": "functional"}, "[21]": {"system": "NB-4", "assay": "Induction of apoptosis in human NB4 cells assessed as nuclear condensation at 0.6 to 1.2 uM after 24 hrs by Hoechst 33342/propidium iodide staining based confocal microscopic method", "assay_type": "functional, cell-based"}, "[22]": {"species": "Rattus norvegicus", "assay": "Induction of mitochondrial membrane potential loss in isolated Wistar rat mitochondria assessed as total heat output at 100 uM using pyruvate as substrate up to 3 hrs by microcalorimetry", "assay_type": "functional"}, "[23]": {"system": "NB-4", "assay": "Cytotoxicity against human NB4 cells assessed as reduction in cell viability at 1 to 1.2 uM after 24 hrs in presence of DMP by trypan blue assay", "assay_type": "functional, cell-based"}, "[24]": {"species": "Rattus norvegicus", "assay": "Induction of mitochondrial membrane potential loss in isolated Wistar rat mitochondria assessed as decline phase rate constant at 100 uM using pyruvate as substrate up to 3 hrs by microcalorimetry", "assay_type": "functional"}, "[25]": {"system": "HEK293", "assay": "Cytotoxicity against HEK293 cells after 24 hrs by MTT assay", "assay_type": "cell-based", "conditions": "Homo sapiens, HEK293, 24 h"}, "[26]": {"system": "NB-4", "assay": "Induction of mitochondrial membrane potential loss in human NB4 cells at 0.6 uM after 1 hr by JC1 staining based flow cytometry (reference value: 27.7%)", "assay_type": "functional"}, "[27]": {"system": "NB-4", "assay": "Induction of mitochondrial membrane potential loss in human NB4 cells at 0.3 to 2.4 uM after 24 hrs by JC-1 staining based confocal microscopic method", "assay_type": "functional, cell-based"}, "[28]": {"species": "Rattus norvegicus", "assay": "Induction of mitochondrial membrane potential loss in isolated Wistar rat mitochondria assessed as activity recovery phase rate constant at 50 uM using pyruvate as substrate up to 3 hrs by microcalorimetry", "assay_type": "functional"}, "[29]": {"species": "Rattus norvegicus", "assay": "Induction of inner mitochondrial membrane permeabilization in isolated Wistar rat mitochondria assessed as H+ permeabilization at 5 to 75 uM measured for 10 to 30 mins", "assay_type": "functional"}, "[30]": {"system": "MCF7", "assay": "Cytotoxicity against human MCF7 cells after 24 hrs by MTT assay", "assay_type": "functional, cell-based", "conditions": "MCF7, 24 h"}, "[31]": {"species": "Rattus norvegicus", "assay": "Induction of mitochondrial membrane potential loss in isolated Wistar rat mitochondria assessed as activity recovery phase rate constant at 100 uM using pyruvate as substrate up to 3 hrs by microcalorimetry", "assay_type": "functional"}, "[32]": {"system": "NB-4", "assay": "Induction of apoptosis in human NB4 cells assessed as early apoptotic cells after 24 hrs by Annexin V-FITC/propidium iodide staining based flow cytometry (reference value: 5%)", "assay_type": "functional"}, "[33]": {"species": "Rattus norvegicus", "assay": "Induction of mitochondrial membrane potential loss in isolated Wistar rat mitochondria assessed as maximum power output time at 100 uM using pyruvate as substrate up to 3 hrs by microcalorimetry", "assay_type": "functional"}},
  "note": "Active and inactive are the calls of the source. The rule behind the calls is not given here.",
  "data": [
    {"compound": "O=C(CC[P+](c1ccccc1)(c1ccccc1)c1ccccc1)Nc1ccc([As]2SCCCS2)cc1.[Cl-]", "values": [
      {"measurement": "Activity", "setting": "[1]", "result": "Active"},
      {"measurement": "K", "setting": "[2]", "result": 0.72, "unit": "×10⁻³ /min"},
      {"measurement": "Activity", "setting": "[3]", "result": 73.9, "unit": "%"},
      {"measurement": "Activity", "setting": "[4]", "result": "inactive"},
      {"measurement": "Activity", "setting": "[5]", "result": "inactive"},
      {"measurement": "Activity", "setting": "[6]", "result": 5.2, "unit": "%"},
      {"measurement": "inhibition", "setting": "[7]", "result": "inactive"},
      {"measurement": "Activity", "setting": "[8]", "result": 107, "unit": "W"},
      {"measurement": "inhibition", "setting": "[9]", "result": "Active"},
      {"measurement": "Activity", "setting": "[10]", "result": "inactive"},
      {"measurement": "K", "setting": "[11]", "result": 0.41, "unit": "×10⁻³ /min"},
      {"measurement": "inhibition", "setting": "[12]", "result": "Active"},
      {"measurement": "Activity", "setting": "[13]", "result": 71.2, "unit": "%"},
      {"measurement": "Activity", "setting": "[14]", "result": 152, "unit": "W"},
      {"measurement": "Activity", "setting": "[15]", "result": 112, "unit": "W"},
      {"measurement": "Activity", "setting": "[16]", "result": "Active"},
      {"measurement": "Activity", "setting": "[17]", "result": 11.6, "unit": "%"},
      {"measurement": "Activity", "setting": "[18]", "result": "Dose-dependent effect"},
      {"measurement": "Activity", "setting": "[19]", "result": "Active"},
      {"measurement": "Activity", "setting": "[20]", "result": 10.8, "unit": "J"},
      {"measurement": "Activity", "setting": "[21]", "result": "Active"},
      {"measurement": "Activity", "setting": "[22]", "result": 11.2, "unit": "J"},
      {"measurement": "Activity", "setting": "[23]", "result": "inactive"},
      {"measurement": "K", "setting": "[24]", "result": -9.13, "unit": "×10⁻³ /min"},
      {"measurement": "IC50", "setting": "[25]", "result": 4.63, "unit": "µM"},
      {"measurement": "Activity", "setting": "[26]", "result": 40.9, "unit": "%"},
      {"measurement": "Activity", "setting": "[27]", "result": "Active"},
      {"measurement": "K", "setting": "[28]", "result": 4.82, "unit": "×10⁻³ /min"},
      {"measurement": "Activity", "setting": "[29]", "result": "Active"},
      {"measurement": "IC50", "setting": "[30]", "result": 4.44, "unit": "µM"},
      {"measurement": "K", "setting": "[31]", "result": 3.88, "unit": "×10⁻³ /min"},
      {"measurement": "Activity", "setting": "[32]", "result": 13.1, "unit": "%"},
      {"measurement": "TIME", "setting": "[33]", "result": 51.8, "unit": "h"}
    ]}
  ]
}
